Assays:
[1] = system: Tyrosine-protein kinase ABL1 (Homo sapiens), P00519 [F317L]; conditions: Compound concentration 1000.0 nM
[2] = system: Tyrosine-protein kinase ABL1 (Homo sapiens), P00519 [T315I]; conditions: Compound concentration 1000.0 nM
[3] = target: RAC-beta serine/threonine-protein kinase (Homo sapiens) (UniProt P31751); conditions: Compound concentration 1000.0 nM
[4] = target: 5'-AMP-activated protein kinase catalytic subunit alpha-2 (Homo sapiens) (UniProt P54646); conditions: Compound concentration 1000.0 nM
[5] = target: Mitogen-activated protein kinase kinase kinase 6 (Homo sapiens) (UniProt O95382); conditions: Compound concentration 1000.0 nM
[6] = target: Calcium/calmodulin-dependent protein kinase type II subunit beta (Homo sapiens) (UniProt Q13554); conditions: Compound concentration 1000.0 nM
[7] = target: Tyrosine-protein kinase CSK (Homo sapiens) (UniProt P41240); conditions: Compound concentration 1000.0 nM
[8] = target: Casein kinase I isoform alpha (Homo sapiens) (UniProt P48729); conditions: Compound concentration 1000.0 nM
[9] = target: Serine/threonine-protein kinase 17B (Homo sapiens) (UniProt O94768); conditions: Compound concentration 1000.0 nM
[10] = target: Mitogen-activated protein kinase 3 (Homo sapiens) (UniProt P27361); conditions: Compound concentration 1000.0 nM
[11] = target: Mitogen-activated protein kinase 7 (Homo sapiens) (UniProt Q13164); conditions: Compound concentration 1000.0 nM
[12] = target: Serine/threonine-protein kinase/endoribonuclease IRE1 (Homo sapiens) (UniProt O75460); conditions: Compound concentration 1000.0 nM
[13] = target: Focal adhesion kinase 1 (Homo sapiens) (UniProt Q05397); conditions: Compound concentration 1000.0 nM
[14] = target: Tyrosine-protein kinase FRK (Homo sapiens) (UniProt P42685); conditions: Compound concentration 1000.0 nM
[15] = target: Tyrosine-protein kinase ITK/TSK (Homo sapiens) (UniProt Q08881); conditions: Compound concentration 1000.0 nM
[16] = target: Mast/stem cell growth factor receptor Kit (Homo sapiens) (UniProt P10721); conditions: Compound concentration 1000.0 nM
[17] = system: Leucine-rich repeat serine/threonine-protein kinase 2 (Homo sapiens), Q5S007 [G2019S]; conditions: Compound concentration 1000.0 nM
[18] = target: Mitogen-activated protein kinase kinase kinase 1 (Homo sapiens) (UniProt Q13233); conditions: Compound concentration 1000.0 nM
[19] = target: Serine/threonine-protein kinase 3 (Homo sapiens) (UniProt Q13188); conditions: Compound concentration 1000.0 nM
[20] = target: Serine/threonine-protein kinase mTOR (Homo sapiens) (UniProt P42345); conditions: Compound concentration 1000.0 nM
[21] = target: Serine/threonine-protein kinase Nek4 (Homo sapiens) (UniProt P51957); conditions: Compound concentration 1000.0 nM
[22] = target: Serine/threonine-protein kinase Nek5 (Homo sapiens) (UniProt Q6P3R8); conditions: Compound concentration 1000.0 nM
[23] = system: Phosphatidylinositol 4,5-bisphosphate 3-kinase catalytic subunit alpha isoform (Homo sapiens), P42336 [I800L]; conditions: Compound concentration 1000.0 nM
[24] = system: Phosphatidylinositol 4,5-bisphosphate 3-kinase catalytic subunit alpha isoform (Homo sapiens), P42336 [M1043I]; conditions: Compound concentration 1000.0 nM
[25] = target: 1-phosphatidylinositol 3-phosphate 5-kinase (Homo sapiens) (UniProt Q9Y2I7); conditions: Compound concentration 1000.0 nM
[26] = target: Serine/threonine-protein kinase pim-2 (Homo sapiens) (UniProt Q9P1W9); conditions: Compound concentration 1000.0 nM
[27] = target: Phosphatidylinositol 5-phosphate 4-kinase type-2 beta (Homo sapiens) (UniProt P78356); conditions: Compound concentration 1000.0 nM
[28] = target: Serine/threonine-protein kinase PLK4 (Homo sapiens) (UniProt O00444); conditions: Compound concentration 1000.0 nM
[29] = target: Protein kinase C delta type (Homo sapiens) (UniProt Q05655); conditions: Compound concentration 1000.0 nM
[30] = target: Proto-oncogene tyrosine-protein kinase receptor Ret (Homo sapiens) (UniProt P07949); conditions: Compound concentration 1000.0 nM
[31] = system: Proto-oncogene tyrosine-protein kinase receptor Ret (Homo sapiens), P07949 [M918T]; conditions: Compound concentration 1000.0 nM
[32] = target: Receptor-interacting serine/threonine-protein kinase 1 (Homo sapiens) (UniProt Q13546); conditions: Compound concentration 1000.0 nM
[33] = target: Ribosomal protein S6 kinase alpha-4 (Homo sapiens) (UniProt O75676); conditions: Compound concentration 1000.0 nM
[34] = target: Ribosomal protein S6 kinase alpha-3 (Homo sapiens) (UniProt P51812); conditions: Compound concentration 1000.0 nM
[35] = target: Serine/threonine-protein kinase Sgk3 (Homo sapiens) (UniProt Q96BR1); conditions: Compound concentration 1000.0 nM
[36] = target: Serine/threonine-protein kinase SIK1 (Homo sapiens) (UniProt P57059); conditions: Compound concentration 1000.0 nM
[37] = target: SNF-related serine/threonine-protein kinase (Homo sapiens) (UniProt Q9NRH2); conditions: Compound concentration 1000.0 nM
[38] = target: Serine/threonine-protein kinase 16 (Homo sapiens) (UniProt O75716); conditions: Compound concentration 1000.0 nM
[39] = target: Tyrosine-protein kinase SYK (Homo sapiens) (UniProt P43405); conditions: Compound concentration 1000.0 nM
[40] = target: TGF-beta receptor type-2 (Homo sapiens) (UniProt P37173); conditions: Compound concentration 1000.0 nM
[41] = target: Serine/threonine-protein kinase tousled-like 1 (Homo sapiens) (UniProt Q9UKI8); conditions: Compound concentration 1000.0 nM
[42] = target: Tyrosine-protein kinase ZAP-70 (Homo sapiens) (UniProt P43403); conditions: Compound concentration 1000.0 nM
[43] = target: 5-hydroxytryptamine receptor 1B (Homo sapiens) (UniProt P28222); conditions: Compound concentration 10.0 uM
[44] = target: Sodium-dependent serotonin transporter (Homo sapiens) (UniProt P31645); conditions: Compound concentration 10.0 uM
[45] = target: Muscarinic acetylcholine receptor M2 (Homo sapiens) (UniProt P08172); conditions: Compound concentration 10.0 uM

Sequence of Tyrosine-protein kinase ITK/TSK (Homo sapiens) (Q08881 whole entry): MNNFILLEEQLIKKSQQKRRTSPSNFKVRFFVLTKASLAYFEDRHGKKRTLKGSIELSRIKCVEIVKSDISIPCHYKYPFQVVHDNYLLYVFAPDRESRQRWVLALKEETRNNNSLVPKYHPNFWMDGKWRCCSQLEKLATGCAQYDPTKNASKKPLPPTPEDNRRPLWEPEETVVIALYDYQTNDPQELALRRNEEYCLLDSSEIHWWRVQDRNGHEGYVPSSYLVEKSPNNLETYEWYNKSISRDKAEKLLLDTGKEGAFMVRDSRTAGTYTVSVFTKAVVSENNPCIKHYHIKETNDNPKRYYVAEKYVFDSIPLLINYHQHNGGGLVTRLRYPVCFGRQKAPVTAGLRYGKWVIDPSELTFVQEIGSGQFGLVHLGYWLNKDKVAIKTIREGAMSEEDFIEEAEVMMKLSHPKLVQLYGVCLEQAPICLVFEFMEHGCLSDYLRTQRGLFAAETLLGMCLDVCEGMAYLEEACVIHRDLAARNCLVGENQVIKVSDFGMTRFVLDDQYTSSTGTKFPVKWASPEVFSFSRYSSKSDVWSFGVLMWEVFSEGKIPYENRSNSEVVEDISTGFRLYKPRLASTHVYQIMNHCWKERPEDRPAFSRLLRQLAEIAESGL
Sequence of Serine/threonine-protein kinase tousled-like 1 (Homo sapiens) (Q9UKI8 whole entry): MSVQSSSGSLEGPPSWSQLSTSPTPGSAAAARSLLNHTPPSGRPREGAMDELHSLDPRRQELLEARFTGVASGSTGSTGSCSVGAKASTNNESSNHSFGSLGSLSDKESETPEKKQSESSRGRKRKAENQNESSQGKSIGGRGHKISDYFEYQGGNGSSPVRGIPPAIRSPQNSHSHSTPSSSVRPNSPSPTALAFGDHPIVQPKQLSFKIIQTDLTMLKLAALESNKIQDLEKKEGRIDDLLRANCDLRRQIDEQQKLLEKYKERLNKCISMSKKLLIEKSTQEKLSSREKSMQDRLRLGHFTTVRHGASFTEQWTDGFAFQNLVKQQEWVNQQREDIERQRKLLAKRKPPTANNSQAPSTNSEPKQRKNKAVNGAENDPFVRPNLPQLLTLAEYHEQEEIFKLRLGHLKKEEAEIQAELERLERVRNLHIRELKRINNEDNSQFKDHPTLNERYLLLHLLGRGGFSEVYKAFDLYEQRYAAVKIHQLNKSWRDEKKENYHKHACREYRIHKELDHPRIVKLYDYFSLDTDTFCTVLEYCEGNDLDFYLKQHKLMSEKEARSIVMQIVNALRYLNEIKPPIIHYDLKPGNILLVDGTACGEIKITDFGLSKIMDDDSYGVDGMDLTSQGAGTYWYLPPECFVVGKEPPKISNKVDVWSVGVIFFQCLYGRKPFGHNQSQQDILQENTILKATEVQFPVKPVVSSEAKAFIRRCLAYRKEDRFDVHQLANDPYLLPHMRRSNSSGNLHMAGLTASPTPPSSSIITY
Sequence of 5'-AMP-activated protein kinase catalytic subunit alpha-2 (Homo sapiens) (P54646 whole entry, looked up): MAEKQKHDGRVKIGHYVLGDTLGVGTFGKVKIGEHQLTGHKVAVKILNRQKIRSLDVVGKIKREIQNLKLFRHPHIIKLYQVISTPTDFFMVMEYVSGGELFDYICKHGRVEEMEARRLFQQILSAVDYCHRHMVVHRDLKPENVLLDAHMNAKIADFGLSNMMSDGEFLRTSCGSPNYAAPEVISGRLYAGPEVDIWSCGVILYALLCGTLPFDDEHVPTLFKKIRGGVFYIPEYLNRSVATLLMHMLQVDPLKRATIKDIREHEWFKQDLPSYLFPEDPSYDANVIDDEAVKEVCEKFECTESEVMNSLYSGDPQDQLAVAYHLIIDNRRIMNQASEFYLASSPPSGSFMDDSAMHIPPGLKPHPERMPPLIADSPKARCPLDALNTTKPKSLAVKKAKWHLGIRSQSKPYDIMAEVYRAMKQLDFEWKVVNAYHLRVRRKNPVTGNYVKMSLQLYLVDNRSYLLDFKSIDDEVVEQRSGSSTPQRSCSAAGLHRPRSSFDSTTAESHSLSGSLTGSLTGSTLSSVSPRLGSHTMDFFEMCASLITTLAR
Sequence of Phosphatidylinositol 4,5-bisphosphate 3-kinase catalytic subunit alpha isoform (Homo sapiens), P42336 [M1043I] (P42336 whole entry M1043I, canonical isoform): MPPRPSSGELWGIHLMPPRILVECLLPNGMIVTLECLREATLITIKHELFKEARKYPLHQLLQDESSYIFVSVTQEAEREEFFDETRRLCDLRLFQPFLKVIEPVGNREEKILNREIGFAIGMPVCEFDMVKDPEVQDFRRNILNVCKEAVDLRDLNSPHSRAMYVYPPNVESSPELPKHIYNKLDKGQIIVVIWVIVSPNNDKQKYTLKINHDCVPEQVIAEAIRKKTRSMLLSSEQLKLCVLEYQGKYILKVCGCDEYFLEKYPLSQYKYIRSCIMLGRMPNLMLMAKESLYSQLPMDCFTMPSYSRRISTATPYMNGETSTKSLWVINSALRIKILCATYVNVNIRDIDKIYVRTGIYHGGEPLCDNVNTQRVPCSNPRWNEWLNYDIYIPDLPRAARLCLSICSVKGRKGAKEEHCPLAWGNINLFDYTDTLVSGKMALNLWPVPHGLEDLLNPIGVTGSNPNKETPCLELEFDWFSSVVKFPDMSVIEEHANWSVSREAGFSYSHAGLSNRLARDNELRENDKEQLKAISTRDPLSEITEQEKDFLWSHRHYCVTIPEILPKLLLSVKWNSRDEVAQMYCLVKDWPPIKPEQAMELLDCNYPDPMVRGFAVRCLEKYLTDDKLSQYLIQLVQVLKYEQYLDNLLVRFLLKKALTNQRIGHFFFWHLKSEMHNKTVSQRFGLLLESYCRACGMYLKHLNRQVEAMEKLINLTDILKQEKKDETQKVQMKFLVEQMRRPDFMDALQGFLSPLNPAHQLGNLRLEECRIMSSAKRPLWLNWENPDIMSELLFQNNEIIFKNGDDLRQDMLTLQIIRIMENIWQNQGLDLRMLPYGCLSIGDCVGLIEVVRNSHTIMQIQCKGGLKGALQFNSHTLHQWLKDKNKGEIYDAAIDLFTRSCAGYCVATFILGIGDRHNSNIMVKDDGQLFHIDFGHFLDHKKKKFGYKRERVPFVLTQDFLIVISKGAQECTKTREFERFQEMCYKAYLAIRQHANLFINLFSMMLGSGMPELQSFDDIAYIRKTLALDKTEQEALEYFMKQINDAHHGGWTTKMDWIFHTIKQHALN
Sequence of RAC-beta serine/threonine-protein kinase (Homo sapiens) (P31751 whole entry): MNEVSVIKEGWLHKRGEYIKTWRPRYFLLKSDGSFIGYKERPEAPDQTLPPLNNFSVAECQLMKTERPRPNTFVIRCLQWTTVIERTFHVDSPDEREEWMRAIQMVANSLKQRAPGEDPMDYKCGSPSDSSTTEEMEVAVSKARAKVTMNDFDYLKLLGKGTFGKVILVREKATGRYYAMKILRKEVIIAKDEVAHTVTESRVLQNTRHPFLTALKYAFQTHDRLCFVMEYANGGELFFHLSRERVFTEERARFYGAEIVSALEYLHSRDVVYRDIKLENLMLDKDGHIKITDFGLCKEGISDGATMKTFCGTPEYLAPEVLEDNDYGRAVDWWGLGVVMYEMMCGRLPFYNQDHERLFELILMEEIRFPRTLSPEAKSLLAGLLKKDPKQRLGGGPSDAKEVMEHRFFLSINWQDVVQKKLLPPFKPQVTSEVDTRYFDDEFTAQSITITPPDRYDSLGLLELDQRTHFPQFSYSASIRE
Sequence of Ribosomal protein S6 kinase alpha-3 (Homo sapiens) (P51812 whole entry): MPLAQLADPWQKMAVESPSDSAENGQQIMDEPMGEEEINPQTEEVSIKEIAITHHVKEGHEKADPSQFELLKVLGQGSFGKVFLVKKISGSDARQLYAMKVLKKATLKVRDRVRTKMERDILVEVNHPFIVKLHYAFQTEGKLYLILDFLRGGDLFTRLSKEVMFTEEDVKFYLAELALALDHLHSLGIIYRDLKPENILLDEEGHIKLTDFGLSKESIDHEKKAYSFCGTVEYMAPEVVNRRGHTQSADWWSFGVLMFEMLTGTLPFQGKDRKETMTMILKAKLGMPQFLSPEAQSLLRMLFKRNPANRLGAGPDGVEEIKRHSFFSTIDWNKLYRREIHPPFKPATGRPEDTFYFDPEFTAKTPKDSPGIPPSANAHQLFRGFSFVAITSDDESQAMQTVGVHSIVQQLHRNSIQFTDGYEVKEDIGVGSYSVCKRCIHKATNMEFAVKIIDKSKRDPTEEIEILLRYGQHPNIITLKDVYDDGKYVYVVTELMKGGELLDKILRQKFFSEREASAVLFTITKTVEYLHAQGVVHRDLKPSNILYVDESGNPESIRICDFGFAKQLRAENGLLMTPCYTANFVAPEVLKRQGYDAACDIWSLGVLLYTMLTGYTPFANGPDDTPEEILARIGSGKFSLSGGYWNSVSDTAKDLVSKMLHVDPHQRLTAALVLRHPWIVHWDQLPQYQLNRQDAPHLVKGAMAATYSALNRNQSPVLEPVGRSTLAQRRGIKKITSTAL
Sequence of Serine/threonine-protein kinase 3 (Homo sapiens) (Q13188 whole entry): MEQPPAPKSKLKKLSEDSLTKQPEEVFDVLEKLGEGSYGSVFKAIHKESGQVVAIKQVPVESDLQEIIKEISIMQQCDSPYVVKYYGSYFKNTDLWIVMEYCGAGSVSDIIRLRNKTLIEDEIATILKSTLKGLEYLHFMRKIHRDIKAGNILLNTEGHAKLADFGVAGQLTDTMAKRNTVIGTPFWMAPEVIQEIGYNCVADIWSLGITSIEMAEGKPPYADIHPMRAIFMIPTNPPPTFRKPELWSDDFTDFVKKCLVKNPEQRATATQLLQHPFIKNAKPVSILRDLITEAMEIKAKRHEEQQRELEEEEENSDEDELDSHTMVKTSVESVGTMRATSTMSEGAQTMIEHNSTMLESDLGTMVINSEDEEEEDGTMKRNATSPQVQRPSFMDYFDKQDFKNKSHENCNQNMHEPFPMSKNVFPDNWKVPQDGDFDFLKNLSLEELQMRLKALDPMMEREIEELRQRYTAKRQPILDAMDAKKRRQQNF
Sequence of Serine/threonine-protein kinase pim-2 (Homo sapiens) (Q9P1W9 whole entry, looked up): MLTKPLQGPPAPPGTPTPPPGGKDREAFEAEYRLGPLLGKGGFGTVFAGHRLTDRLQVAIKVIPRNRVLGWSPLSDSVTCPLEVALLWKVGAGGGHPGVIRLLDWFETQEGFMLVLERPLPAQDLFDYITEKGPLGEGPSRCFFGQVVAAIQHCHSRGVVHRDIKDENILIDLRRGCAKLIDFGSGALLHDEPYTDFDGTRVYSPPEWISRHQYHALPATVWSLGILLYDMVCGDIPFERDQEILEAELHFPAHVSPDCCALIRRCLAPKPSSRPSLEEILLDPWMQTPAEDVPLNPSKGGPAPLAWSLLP

In the case of `Cc1nc(Cc2cccc(C(F)(F)F)c2)sc1-c1ccc(C(N)=O)nc1` [TP-024n], the residual activity [1] is reported as 89%, the residual activity [2] is reported as 100% and the residual activity [3] is reported as 81%. It also gave a residual activity [4] of 96%, a residual activity [5] of 99% and a residual activity [6] of 100%. For the same compound, the residual activity [7] was 88%, the residual activity [8] was 99% and the residual activity [9] was 79%. For the same compound, the residual activity [10] was 96%, the residual activity [11] was 88% and the residual activity [12] was 100%. For the same compound, the residual activity [13] was 95%, the residual activity [14] was 100% and the residual activity [15] was 100%. It also gave a residual activity [16] of 100%, a residual activity [17] of 82% and a residual activity [18] of 100%. It also gave a residual activity [19] of 97%, a residual activity [20] of 87% and a residual activity [21] of 100%. The residual activity [22] was 35%, the residual activity [23] was 56% and the residual activity [24] was 15%. The residual activity [25] was 75%, the residual activity [26] was 64% and the residual activity [27] was 88%. For the same compound, the residual activity [28] was 90%, the residual activity [29] was 79% and the residual activity [30] was 100%. The residual activity [31] was 95%, the residual activity [32] was 91% and the residual activity [33] was 100%. It also gave a residual activity [34] of 99%, a residual activity [35] of 100% and a residual activity [36] of 100%. It also gave a residual activity [37] of 84%, a residual activity [38] of 100% and a residual activity [39] of 100%. The residual activity [40] was 100%, the residual activity [41] was 100% and the residual activity [42] was 93%. It also gave an inhibition [43] of 7.99%, an inhibition [44] of -7.18% and an inhibition [45] of 12.8%.

With `Cc1cc(-n2nc(Cc3cc(F)cc(C(F)(F)F)c3)nc2C)ccc1C(N)=O` [TP-024] the residual activity [1] was 100%, the residual activity [2] was 100% and the residual activity [3] was 100%. For the same compound, the residual activity [4] was 100%, the residual activity [5] was 100% and the residual activity [6] was 100%. For the same compound, the residual activity [7] was 97%, the residual activity [8] was 100% and the residual activity [9] was 81%. It also gave a residual activity [10] of 100%, a residual activity [11] of 100% and a residual activity [12] of 100%. It also gave a residual activity [13] of 100%, a residual activity [14] of 100% and a residual activity [15] of 93%. The residual activity [16] was 100%, the residual activity [17] was 100% and the residual activity [18] was 100%. It also gave a residual activity [19] of 100%, a residual activity [20] of 78% and a residual activity [21] of 100%. For the same compound, the residual activity [22] was 77%, the residual activity [23] was 70% and the residual activity [24] was 95%. It also gave a residual activity [25] of 70%, a residual activity [26] of 83% and a residual activity [27] of 100%. It also gave a residual activity [28] of 84%, a residual activity [29] of 88% and a residual activity [30] of 96%. The residual activity [31] was 100%, the residual activity [32] was 90% and the residual activity [33] was 100%. For the same compound, the residual activity [34] was 100%, the residual activity [35] was 80% and the residual activity [36] was 100%. For the same compound, the residual activity [37] was 100%, the residual activity [38] was 91% and the residual activity [39] was 87%. The residual activity [40] was 100%, the residual activity [41] was 93% and the residual activity [42] was 82%. The inhibition [43] was 13.8%, the inhibition [44] was -1.29% and the inhibition [45] was 5.69%.
